Values quoted from earlier work in patent publication US20210363254A1, “PHARMACEUTICAL COMBINATIONS” (Novartis AG, priority 2018, published 2021).

Tested on: renal cell carcinoma (RCC)
Settings: RCC patients beyond first-line therapy; cited from earlier work

Nivolumab: inhibitor of the PD-1/PD-L1 interaction approved for use in RCC
OS benefit compared with everolimus: 5.4 months | median OS: 25 months
